This is an account of results in article PMC10361003 (Journal of Enzyme Inhibition and Medicinal Chemistry, 2023).

The first experiment deals with AR.
Assay: not given
To be noted: read-out: IC50 (reported AR inhibition); Zopolrestat; cited from earlier work.
Turning to `O=C(O)Cc1nn(Cc2nc3cc(C(F)(F)F)ccc3s2)c(=O)c2ccccc12` [Zopolrestat, 3,4-dihydro-4-oxo-3-[[5-(trifluoromethyl)-2-benzothiazolyl]methyl]-1-phthalazineacetic acid], the IC50 (commonly the concentration at which inhibition is half-maximal) was 3.1 nM.

In a further experiment the target is T1, aldose reductase (Homo sapiens, UniProt P15121).
Assay: not given
Particulars: at 0.5 IC50.
As for `O=C1S/C(=C\c2ccc(Cl)cc2)C(=O)N1Cc1nc2ccccc2s1` [Compound 8b, (Z)-3-(benzo[d]thiazol-2-ylmethyl)-5-(4-chlorobenzylidene)thiazolidine-2,4-dione], the “effect on Km” value was “slight reduction” and the “effect on Vmax” value was “significant reduction”.

The experiment is the same for the next values; noted with them: at concentrations equal to IC50 and double of IC50.
For the compound `O=C1S/C(=C\c2ccc(Cl)cc2)C(=O)N1Cc1nc2ccccc2s1` [Compound 8b, (Z)-3-(benzo[d]thiazol-2-ylmethyl)-5-(4-chlorobenzylidene)thiazolidine-2,4-dione], the “effect on Km and Vmax” value is listed as “decreased significantly”.

A further experiment deals with T1, aldose reductase. In words: In vitro enzyme inhibitory assay against human aldose reductase. Particulars: AR inhibition, Epalrestat as positive control. The experiment is classed as biochemical.
`COc1cc(/C=C2\SC(=O)N(CC(=O)c3ccc([N+](=O)[O-])cc3)C2=O)cc(OC)c1OC` [Compound 5g, (Z)-3-(2-(4-nitrophenyl)-2-oxoethyl)-5-(3,4,5-trimethoxybenzylidene)thiazolidine-2,4-dione] displayed an IC50 of 720 nM.

Compound `COc1ccc(/C=C2\SC(=O)N(CC(=O)c3ccc([N+](=O)[O-])cc3)C2=O)cc1` [Compound 5f, (Z)-5-(4-methoxybenzylidene)-3-(2-(4-nitrophenyl)-2-oxoethyl)thiazolidine-2,4-dione] showed an IC50 of 280 nM.

Compound `O=C1S/C(=C\c2ccc(Br)cc2)C(=O)N1Cc1nc2ccccc2s1` [Compound 8c, (Z)-3-(benzo[d]thiazol-2-ylmethyl)-5-(4-bromobenzylidene)thiazolidine-2,4-dione] showed an IC50 of 210 nM.

`O=C(CN1C(=O)S/C(=C\c2ccc(Cl)cc2)C1=O)c1ccc([N+](=O)[O-])cc1` [Compound 5b, (Z)-5-(4-chlorobenzylidene)-3-(2-(4-nitrophenyl)-2-oxoethyl)thiazolidine-2,4-dione] yielded an IC50 of 460 nM.

Turning to `O=C(CN1C(=O)S/C(=C\c2ccc([N+](=O)[O-])cc2)C1=O)c1ccc([N+](=O)[O-])cc1` [Compound 5a, (Z)-5-(4-nitrobenzylidene)-3-(2-(4-nitrophenyl)-2-oxoethyl)thiazolidine-2,4-dione], the IC50 came out at 220 nM.

In turn, `O=C1S/C(=C\c2ccc(Cl)cc2)C(=O)N1Cc1nc2ccccc2s1` [Compound 8b, (Z)-3-(benzo[d]thiazol-2-ylmethyl)-5-(4-chlorobenzylidene)thiazolidine-2,4-dione] yielded an IC50 of 160 nM.

Turning to `O=C1S/C(=C\c2ccc([N+](=O)[O-])cc2)C(=O)N1Cc1nc2ccccc2s1` [Compound 8a, (Z)-3-(benzo[d]thiazol-2-ylmethyl)-5-(4-nitrobenzylidene)thiazolidine-2,4-dione], the half-inhibitory concentration (IC50) amounted to 1980 nM.

Compound `COc1cc(/C=C2\SC(=O)N(Cc3nc4ccccc4s3)C2=O)cc(OC)c1OC` [Compound 8g, (Z)-3-(benzo[d]thiazol-2-ylmethyl)-5-(3,4,5-trimethoxybenzylidene)thiazolidine-2,4-dione] came in with an IC50 of 270 nM.

As for `O=C(CN1C(=O)S/C(=C\c2ccc(Br)cc2)C1=O)c1ccc([N+](=O)[O-])cc1` [Compound 5c, (Z)-5-(4-bromobenzylidene)-3-(2-(4-nitrophenyl)-2-oxoethyl)thiazolidine-2,4-dione], half-maximal inhibition (IC50) was put at 490 nM.

In the case of `Cc1ccc(/C=C2\SC(=O)N(CC(=O)c3ccc([N+](=O)[O-])cc3)C2=O)cc1` [Compound 5e, (Z)-5-(4-methylbenzylidene)-3-(2-(4-nitrophenyl)-2-oxoethyl)thiazolidine-2,4-dione], it took 550 nM to reach half-maximal inhibition (IC50).

In the case of `COc1ccc(/C=C2\SC(=O)N(Cc3nc4ccccc4s3)C2=O)cc1` [Compound 8f, (Z)-3-(benzo[d]thiazol-2-ylmethyl)-5-(4-methoxybenzylidene)thiazolidine-2,4-dione], the IC50 was 940 nM.

`O=C(CN1C(=O)S/C(=C\c2ccc(F)cc2)C1=O)c1ccc([N+](=O)[O-])cc1` [Compound 5d, (Z)-5-(4-fluorobenzylidene)-3-(2-(4-nitrophenyl)-2-oxoethyl)thiazolidine-2,4-dione] showed an IC50 of 570 nM.

On to `O=C(CN1C(=O)S/C(=C\c2cccc([N+](=O)[O-])c2)C1=O)c1ccc([N+](=O)[O-])cc1` [Compound 5h, (Z)-5-(3-nitrobenzylidene)-3-(2-(4-nitrophenyl)-2-oxoethyl)thiazolidine-2,4-dione], for which half-maximal inhibition (IC50) was put at 510 nM.

For the compound `O=C(CN1C(=O)S/C(=C\c2cccc(Br)c2)C1=O)c1ccc([N+](=O)[O-])cc1` [Compound 5k, (Z)-5-(3-bromobenzylidene)-3-(2-(4-nitrophenyl)-2-oxoethyl)thiazolidine-2,4-dione], the IC50 amounted to 410 nM.

`Cc1ccc(/C=C2\SC(=O)N(Cc3nc4ccccc4s3)C2=O)cc1` [Compound 8e, (Z)-3-(benzo[d]thiazol-2-ylmethyl)-5-(4-methylbenzylidene)thiazolidine-2,4-dione] displayed an IC50 of 290 nM.

For `COc1ccc(/C=C2\SC(=O)N(Cc3nc4ccccc4s3)C2=O)cc1OC` [Compound 8h, (Z)-3-(benzo[d]thiazol-2-ylmethyl)-5-(3,4-dimethoxybenzylidene)thiazolidine-2,4-dione], half-maximal inhibition (IC50) was put at 450 nM.

As for `O=C1S/C(=C\c2ccc(F)cc2)C(=O)N1Cc1nc2ccccc2s1` [Compound 8d, (Z)-3-(benzo[d]thiazol-2-ylmethyl)-5-(4-fluorobenzylidene)thiazolidine-2,4-dione], the IC50 is 330 nM.
